{"source": "paper PMC12211128", "about": "“Safety, tolerability, pharmacokinetic and pharmacodynamic effects of the muscarinic M1 positive allosteric modulator VU0467319 for Alzheimer’s disease: a single ascending-dose study in healthy participants” (Alzheimer's Research & Therapy, 2025)", "assay": "Urine pharmacokinetics, single ascending dose and food effect studies", "type": "in vivo, human", "details": "for CLR (renal clearance) / Max_Rate (maximum observed excretion rate) / Total %fe / Total Ae: mean (SD); for Max_Rate (maximum observed excretion rate) / Total %fe / Total Ae / Tmax_Rate: urine; for Tmax_Rate: median (min, max)", "procedure": "Blood samples (4 mL) were obtained by direct venipuncture into K2 EDTA tubes at 0.5 h pre-dose and at 0.5, 1, 1.5, 2, 2.5, 3, 5, 7, 9, 12, 24, 26, 28, 36, 48 and 144-hours post-dose. […] Urine samples for PK quantification were collected at pre-dose and 2, 5, 12, 24, 36 and 144-hours post-dose.\nDetermination of plasma and urine concentrations of VU319 and metabolite VU0481424 (VU424) was carried out in compliance with Good Laboratory Practice using a validated method at Illinois Institute of Technology Research Institute (IITRI) laboratories. Pharmacokinetic endpoints included the following VU319 parameters for plasma: area under the plasma concentration-time curve (AUC0 − 48); area under the plasma concentration-time curve extrapolated to infinity (AUC0−∞); percentage of the extrapolated area under the plasma concentration-time curve (%AUCextrap); maximum observed plasma concentration (Cmax); time (in hours) at which Cmax occurred (Tmax); clearance (Cl/F); elimination half-life (t1/2) and volume of distribution (Vd/F). Pharmacokinetic endpoints for VU319 for urine included the following parameters: renal clearance (CLu); amount excreted in urine (Ae) and percent excreted in urine (Ae%).\nSingle-dose PK parameters were derived from the plasma time concentrations and urinary concentrations. Pharmacokinetic parameters were summarized for each dose group using standard descriptive statistics. Summary statistics (mean, SD, min, max, coefficient of variation %) were calculated for each PK parameter. Plasma samples collected outside of the permitted windows (± 5 min for 0 to 48 h, inclusive; ±3 h for 72 to 144 h, inclusive) were flagged, footnoted in listings of PK concentration data, and excluded from the summary statistics and mean graphs of concentration data. However, these values were used in the calculation of the PK parameters and were also included in the individual concentration/time listings and figures. In this study, no concentration values were excluded due to implausibility.\nMissing pre-dose PK concentrations were imputed as 0 in PK parameter calculations. Otherwise, missing data were not imputed. Actual post-dose sampling times were used in the calculation of plasma PK parameters and in the generation of individual concentration-time profiles. Nominal sampling times were used as a replacement for unknown or missing actual times and for the pre-dose values. Nominal sampling timepoints were used in the generation of mean plots and summary tables. For urine samples, nominal intervals were used. All PK analyses were performed using Statistical Analysis Software (SAS®; SAS Institute Inc., Cary, NC) version 9.4.", "key": {"[1]": {"details": "VU319 120 mg oral, fasted, food effect study"}, "[2]": {"details": "VU319 120 mg oral, fed, food effect study"}}, "data": [{"smiles": "Cn1cc2c(-c3cc(F)c(CN4Cc5ncccc5C4=O)c(F)c3)cccc2n1", "note": "[VU319]", "values": [{"measurement": "CLR (renal clearance)", "setting": "VU319 60 mg oral, SAD", "result": "1.25 (0.303) mL/h"}, {"measurement": "CLR (renal clearance)", "setting": "VU319 120 mg oral, SAD", "result": "1.16 (0.537) mL/h"}, {"measurement": "CLR (renal clearance)", "setting": "[1]", "result": "1.24 (0.36) mL/h"}, {"measurement": "CLR (renal clearance)", "setting": "[2]", "result": "1.48 (0.4) mL/h"}, {"measurement": "CLR (renal clearance)", "setting": "VU319 240 mg oral, SAD", "result": "1.13 (0.657) mL/h"}, {"measurement": "CLR (renal clearance)", "setting": "VU319 400 mg oral, SAD", "result": "0.97 (0.42) mL/h"}, {"measurement": "CLR (renal clearance)", "setting": "VU319 600 mg oral, SAD", "result": "0.673 (0.34) mL/h"}, {"measurement": "Total %fe (fraction of the dose excreted unchanged in urine)", "setting": "all dose levels", "result": "< 0.1", "unit": "%"}, {"measurement": "Max_Rate (maximum observed excretion rate)", "setting": "VU319 60 mg oral, SAD", "result": "0.0024 (0.0012) mg/h"}, {"measurement": "Total %fe", "setting": "VU319 60 mg oral, SAD", "result": "0.075 (0.034) %"}, {"measurement": "Total Ae", "setting": "VU319 60 mg oral, SAD", "result": "0.045 (0.021) mg"}, {"measurement": "Tmax_Rate", "setting": "VU319 60 mg oral, SAD", "result": "3.5 (3.5, 8.5) h"}, {"measurement": "Max_Rate (maximum observed excretion rate)", "setting": "VU319 120 mg oral, SAD", "result": "0.0032 (0.0025) mg/h"}, {"measurement": "Total %fe", "setting": "VU319 120 mg oral, SAD", "result": "0.051 (0.026) %"}, {"measurement": "Total Ae", "setting": "VU319 120 mg oral, SAD", "result": "0.061 (0.032) mg"}, {"measurement": "Tmax_Rate", "setting": "VU319 120 mg oral, SAD", "result": "8.5 (3.5, 18.0) h"}, {"measurement": "Max_Rate (maximum observed excretion rate)", "setting": "[1]", "result": "0.0025 (0.0011) mg/h"}, {"measurement": "Total Ae", "setting": "[1]", "result": "0.068 (0.026) mg"}, {"measurement": "Tmax_Rate", "setting": "[1]", "result": "8.5 (3.5, 30) h"}, {"measurement": "Max_Rate (maximum observed excretion rate)", "setting": "[2]", "result": "0.005 (0.003) mg/h"}, {"measurement": "Total %fe", "setting": "[2]", "result": "0.075 (0.028) %"}, {"measurement": "Total Ae", "setting": "[2]", "result": "0.091 (0.034) mg"}, {"measurement": "Tmax_Rate", "setting": "[2]", "result": "6.0 (1.0, 8.5) h"}, {"measurement": "Max_Rate (maximum observed excretion rate)", "setting": "VU319 240 mg oral, SAD", "result": "0.0053 (0.0024) mg/h"}, {"measurement": "Total %fe", "setting": "VU319 240 mg oral, SAD", "result": "0.039 (0.017) %"}, {"measurement": "Total Ae", "setting": "VU319 240 mg oral, SAD", "result": "0.093 (0.042) mg"}, {"measurement": "Tmax_Rate", "setting": "VU319 240 mg oral, SAD", "result": "6.0 (3.5, 18.0) h"}, {"measurement": "Max_Rate (maximum observed excretion rate)", "setting": "VU319 400 mg oral, SAD", "result": "0.0056 (0.0018) mg/h"}, {"measurement": "Total %fe", "setting": "VU319 400 mg oral, SAD", "result": "0.0297 (0.015) %"}, {"measurement": "Total Ae", "setting": "VU319 400 mg oral, SAD", "result": "0.12 (0.058) mg"}, {"measurement": "Tmax_Rate", "setting": "VU319 400 mg oral, SAD", "result": "6.0 (3.5, 30.0) h"}, {"measurement": "Max_Rate (maximum observed excretion rate)", "setting": "VU319 600 mg oral, SAD", "result": "0.0051 (0.0027) mg/h"}, {"measurement": "Total %fe", "setting": "VU319 600 mg oral, SAD", "result": "0.024 (0.011) %"}, {"measurement": "Total Ae", "setting": "VU319 600 mg oral, SAD", "result": "0.143 (0.065) mg"}, {"measurement": "Tmax_Rate", "setting": "VU319 600 mg oral, SAD", "result": "6.0 (3.5, 42.0) h"}]}]}
